Assay results as given in ChEMBL document CHEMBL3885861, “Open TG-GATES”.

Species: Rattus norvegicus
Assay: Open TG-GATES - Regimen: Daily Repeat
Type: toxicity, organism-based, Sprague-Dawley
Set-up: regimen Daily Repeat, gender Male, age 6 weeks
Details: in vivo, po, 750 mg/kg, route gavage, dose level High; for APTT / Bas / Eos / Fbg / Hb / Ht / Lym / MCH / MCHC / MCV / Mono / Neu / PT / Plat / RBC / Ret / WBC: tissue Blood; for KIDNEY_L / KIDNEY_R / KIDNEY_TOTAL: tissue Kidney; for LIVER: tissue Liver; for A/G / ALP / ALT / AST / BUN / CRE / Ca / Cl / DBIL / GLC / IP / K / LDH / Na / PL / RALB / TBIL / TC / TG / TP / gamma-GTP: tissue Plasma

CN(C/C=C/C#CC(C)(C)C)Cc1cccc2ccccc12 [TERBINAFINE]
TERMINAL_BW (72 h, time 3 day): 217.7 g | APTT (72 h, time 3 day): 22.6 s | Bas (72 h, time 3 day): 0.8% | Eos (72 h, time 3 day): 0.8% | Fbg (72 h, time 3 day): 200.6 mg/dL | Hb (72 h, time 3 day): 14.1 g/dL | Ht (72 h, time 3 day): 41.1% | Lym (72 h, time 3 day): 82.8% | MCH (72 h, time 3 day): 20.9 pg | MCHC (72 h, time 3 day): 34.2% | MCV (72 h, time 3 day): 61 fL | Mono (72 h, time 3 day): 2.6% | Neu (72 h, time 3 day): 13% | PT (72 h, time 3 day): 12.5 s | Plat (72 h, time 3 day): 137.3 x10_4/uL | RBC (72 h, time 3 day): 673.8 x10_4/ul | Ret (72 h, time 3 day): 4.5% | WBC (72 h, time 3 day): 64.8 x10_2/uL | KIDNEY_L (72 h, time 3 day): 1 g | KIDNEY_R (72 h, time 3 day): 1.1 g | KIDNEY_TOTAL (72 h, time 3 day): 2.1 g | LIVER (72 h, time 3 day): 11.4 g | A/G (72 h, time 3 day): 2 | ALP (72 h, time 3 day): 748.6 IU/L | ALT (72 h, time 3 day): 34.6 IU/L | AST (72 h, time 3 day): 62.6 IU/L | BUN (72 h, time 3 day): 10.6 mg/dL | CRE (72 h, time 3 day): 0.4 mg/dL | Ca (72 h, time 3 day): 9.5 mg/dL | Cl (72 h, time 3 day): 102.8 meq/L | DBIL (72 h, time 3 day): 0.09 mg/dL | GLC (72 h, time 3 day): 172 mg/dL | IP (72 h, time 3 day): 9.2 mg/dL | K (72 h, time 3 day): 3.8 meq/L | LDH (72 h, time 3 day): 207.4 IU/L | Na (72 h, time 3 day): 140.8 meq/L | PL (72 h, time 3 day): 123.2 mg/dL | RALB (72 h, time 3 day): 3.6 g/dL | TBIL (72 h, time 3 day): 0.2 mg/dL | TC (72 h, time 3 day): 81 mg/dL | TG (72 h, time 3 day): 19.2 mg/dL | TP (72 h, time 3 day): 5.4 g/dL | gamma-GTP (72 h, time 3 day): 1.8 IU/L | TERMINAL_BW ([…], time 7 day): 187.9 g | TERMINAL_BW ([…], time 14 day): 255.9 g | TERMINAL_BW ([…], time 28 day): 360.5 g | APTT ([…], time 7 day): 45.7 s | Bas ([…], time 7 day): 1% | Eos ([…], time 7 day): 0.6% | Fbg ([…], time 7 day): 187.6 mg/dL | Hb ([…], time 7 day): 15.9 g/dL | Ht ([…], time 7 day): 45.2% | Lym ([…], time 7 day): 77.6% | MCH ([…], time 7 day): 21.1 pg | MCHC ([…], time 7 day): 35.2% | MCV ([…], time 7 day): 59.8 fL | Mono ([…], time 7 day): 4.6% | Neu ([…], time 7 day): 15.8% | PT ([…], time 7 day): 30.8 s | Plat ([…], time 7 day): 146 x10_4/uL | RBC ([…], time 7 day): 755 x10_4/ul | Ret ([…], time 7 day): 0.3% | WBC ([…], time 7 day): 82.6 x10_2/uL | APTT ([…], time 14 day): 21.4 s | Bas ([…], time 14 day): 0.6% | Eos ([…], time 14 day): 0.6% | Fbg ([…], time 14 day): 198.4 mg/dL | Hb ([…], time 14 day): 13.8 g/dL | Ht ([…], time 14 day): 40.2% | Lym ([…], time 14 day): 70.4% | MCH ([…], time 14 day): 20.7 pg | MCHC ([…], time 14 day): 34.3% | MCV ([…], time 14 day): 60.3 fL | Mono ([…], time 14 day): 3.2% | Neu ([…], time 14 day): 24.4% | PT ([…], time 14 day): 11.9 s | Plat ([…], time 14 day): 119.4 x10_4/uL | RBC ([…], time 14 day): 667 x10_4/ul | Ret ([…], time 14 day): 5.8% | WBC ([…], time 14 day): 116.6 x10_2/uL | APTT ([…], time 28 day): 26 s | Bas ([…], time 28 day): 0.4% | Eos ([…], time 28 day): 1% | Fbg ([…], time 28 day): 211.6 mg/dL | Hb ([…], time 28 day): 14 g/dL | Ht ([…], time 28 day): 40.2% | Lym ([…], time 28 day): 76.4% | MCH ([…], time 28 day): 19.8 pg | MCHC ([…], time 28 day): 34.8% | MCV ([…], time 28 day): 57.1 fL | Mono ([…], time 28 day): 3.4% | Neu ([…], time 28 day): 18.4% | PT ([…], time 28 day): 12.8 s | Plat ([…], time 28 day): 110.7 x10_4/uL | RBC ([…], time 28 day): 705.6 x10_4/ul | Ret ([…], time 28 day): 2.9% | WBC ([…], time 28 day): 115.7 x10_2/uL | KIDNEY_L ([…], time 7 day): 1.1 g | KIDNEY_R ([…], time 7 day): 1.1 g | KIDNEY_TOTAL ([…], time 7 day): 2.2 g | KIDNEY_L ([…], time 14 day): 1.2 g | KIDNEY_R ([…], time 14 day): 1.3 g | KIDNEY_TOTAL ([…], time 14 day): 2.5 g | KIDNEY_L ([…], time 28 day): 1.6 g | KIDNEY_R ([…], time 28 day): 1.7 g | KIDNEY_TOTAL ([…], time 28 day): 3.3 g | LIVER ([…], time 7 day): 12.4 g | LIVER ([…], time 14 day): 16.5 g | LIVER ([…], time 28 day): 21.9 g | A/G ([…], time 7 day): 1.9 | ALP ([…], time 7 day): 692.8 IU/L | ALT ([…], time 7 day): 52 IU/L | AST ([…], time 7 day): 81.4 IU/L | BUN ([…], time 7 day): 14.6 mg/dL | CRE ([…], time 7 day): 0.5 mg/dL | Ca ([…], time 7 day): 9.1 mg/dL | Cl ([…], time 7 day): 103.6 meq/L | DBIL ([…], time 7 day): 0.1 mg/dL | GLC ([…], time 7 day): 141 mg/dL | IP ([…], time 7 day): 7 mg/dL | K ([…], time 7 day): 4.6 meq/L | LDH ([…], time 7 day): 214.2 IU/L | Na ([…], time 7 day): 142.4 meq/L | PL ([…], time 7 day): 145 mg/dL | RALB ([…], time 7 day): 3.5 g/dL | TBIL ([…], time 7 day): 0.2 mg/dL | TC ([…], time 7 day): 96.8 mg/dL | TG ([…], time 7 day): 21.4 mg/dL | TP ([…], time 7 day): 5.3 g/dL | gamma-GTP ([…], time 7 day): 2.6 IU/L | A/G ([…], time 14 day): 1.7 | ALP ([…], time 14 day): 536.8 IU/L | ALT ([…], time 14 day): 37 IU/L | AST ([…], time 14 day): 60.2 IU/L | BUN ([…], time 14 day): 15.8 mg/dL | CRE ([…], time 14 day): 0.4 mg/dL | Ca ([…], time 14 day): 10.4 mg/dL | Cl ([…], time 14 day): 103 meq/L | DBIL ([…], time 14 day): 0.074 mg/dL | GLC ([…], time 14 day): 183 mg/dL | IP ([…], time 14 day): 7.8 mg/dL | K ([…], time 14 day): 4 meq/L | LDH ([…], time 14 day): 151.8 IU/L | Na ([…], time 14 day): 142.8 meq/L | PL ([…], time 14 day): 136.4 mg/dL | RALB ([…], time 14 day): 3.8 g/dL | TBIL ([…], time 14 day): 0.1 mg/dL | TC ([…], time 14 day): 82 mg/dL | TG ([…], time 14 day): 20.4 mg/dL | TP ([…], time 14 day): 6.1 g/dL | gamma-GTP ([…], time 14 day): 1.2 IU/L | A/G ([…], time 28 day): 1.8 | ALP ([…], time 28 day): 601.2 IU/L | ALT ([…], time 28 day): 50 IU/L | AST ([…], time 28 day): 65.4 IU/L | BUN ([…], time 28 day): 14.8 mg/dL | CRE ([…], time 28 day): 0.5 mg/dL | Ca ([…], time 28 day): 10.2 mg/dL | Cl ([…], time 28 day): 103.2 meq/L | DBIL ([…], time 28 day): 0.08 mg/dL | GLC ([…], time 28 day): 197.2 mg/dL | IP ([…], time 28 day): 8 mg/dL | K ([…], time 28 day): 3.8 meq/L | LDH ([…], time 28 day): 178.8 IU/L | Na ([…], time 28 day): 142.4 meq/L | PL ([…], time 28 day): 146.4 mg/dL | RALB ([…], time 28 day): 3.9 g/dL | TBIL ([…], time 28 day): 0.2 mg/dL | TC ([…], time 28 day): 88.4 mg/dL | TG ([…], time 28 day): 18.2 mg/dL | TP ([…], time 28 day): 6.1 g/dL | gamma-GTP ([…], time 28 day): 1.6 IU/L
